{
  "source": "patent US20210267939A1",
  "about": "“COMPOSITIONS AND METHODS FOR TREATING NAFLD/NASH AND RELATED DISEASE PHENOTYPES” (priority 2018, published 2021)",
  "type_in_all_cases": "in vivo",
  "key": {"Zucker fatty rats [1]": {"system": "Zucker fatty rats", "assay": "1 g/kg i.p. glucose tolerance test in treated Zucker fatty rats", "conditions": "ZFR, BT2 20 mg/kg i.p., day 6, 1 g/kg i.p. glucose, vs vehicle", "description": "(§1) Individually housed, male 12 week-old Zucker fatty rats (ZFR, Charles River Laboratories) maintained on a custom control low fat (LF) diet (A11072001, Research Diets) were used for the BDK inhibition and PPM1K overexpression studies. For the BDK inhibition study, ZFR were administered the small molecule BDK inhibitor 3,6-dichlorobenzo[b]thiophene-2-carboxylic acid (BT2, Sigma) daily at a dose of 20 mg/kg dissolved in 200 ul of sterile dimethylsulfoxide by i.p. injection for 7 days. The control group was administered an equal volume of vehicle each day. […]\n(§2) Plasma concentrations of the alpha-keto acids of leucine (α-keto-isocaproate, KIC), isoleucine (α-keto-β-methylvalerate, KMV) and valine (α-keto-isovalerate, KIV) were measured by LC-MS as previously described (Glynn et al., 2015; White et al., 2016). Other plasma analytes were measured on a Beckman DxC600 autoanalyzer, using reagents for lactate, total cholesterol, and triglycerides from Beckman, and non-esterified fatty acids (NEFA) and ketones (total and 3-hydroxybutyrate) from Wako (Richmond, Va.). Glycerol was measured using reagents from TG-B by Roche Diagnostics (Indianapolis, Ind.). Liver triglycerides were quantified using the triglyceride quantification kit from Abcam. Plasma insulin concentrations were measured with a Millipore EMD Rat insulin ELISA kit."}, "Zucker fatty rats [2]": {"system": "Zucker fatty rats", "assay": "Tissue acylcarnitine profiling in treated Zucker fatty rats", "conditions": "ZFR, BT2 20 mg/kg i.p. daily for one week, vs vehicle", "description": "(§3) Individually housed, male 12 week-old Zucker fatty rats (ZFR, Charles River Laboratories) maintained on a custom control low fat (LF) diet (A11072001, Research Diets) were used for the BDK inhibition and PPM1K overexpression studies. For the BDK inhibition study, ZFR were administered the small molecule BDK inhibitor 3,6-dichlorobenzo[b]thiophene-2-carboxylic acid (BT2, Sigma) daily at a dose of 20 mg/kg dissolved in 200 ul of sterile dimethylsulfoxide by i.p. injection for 7 days. The control group was administered an equal volume of vehicle each day. On day 6, following an overnight fast, ZFR were subjected to a 1 g/kg i.p. glucose tolerance test (GTT) precisely 1 hr after administration of BT2 (20 mg/kg i.p.) or vehicle. The glucose tolerance test was performed as described (White, et al., 2016). Following the GTT, rats were returned to their normal cages and provided free access to food and water. Indirect calorimetry was performed in a second cohort of BT2 treated rats on day 6 of BT2 administration. Here ad-libitum fed rats were injected with BT2 (20 mg/kg i.p.) or vehicle immediately prior to being placed in an eight-chamber Oxymax system (Columbus Instruments) for seven hours. During their time in the metabolic cages all rats had free access to food and water. […]\n(§4) Metabolite profiling: Amino acids were measured in plasma and liver samples, and acylcarnitines in liver samples. […]"}, "BCKDH": {"system": "BCKDH", "assay": "Tissue BCKDH activity assay in treated Zucker fatty rats", "conditions": "ZFR, BT2 20 mg/kg i.p. daily for one week, vs vehicle", "description": "Individually housed, male 12 week-old Zucker fatty rats (ZFR, Charles River Laboratories) maintained on a custom control low fat (LF) diet (A11072001, Research Diets) were used for the BDK inhibition and PPM1K overexpression studies. For the BDK inhibition study, ZFR were administered the small molecule BDK inhibitor 3,6-dichlorobenzo[b]thiophene-2-carboxylic acid (BT2, Sigma) daily at a dose of 20 mg/kg dissolved in 200 ul of sterile dimethylsulfoxide by i.p. injection for 7 days. The control group was administered an equal volume of vehicle each day. On day 6, following an overnight fast, ZFR were subjected to a 1 g/kg i.p. glucose tolerance test (GTT) precisely 1 hr after administration of BT2 (20 mg/kg i.p.) or vehicle. The glucose tolerance test was performed as described (White, et al., 2016). Following the GTT, rats were returned to their normal cages and provided free access to food and water. Indirect calorimetry was performed in a second cohort of BT2 treated rats on day 6 of BT2 administration. Here ad-libitum fed rats were injected with BT2 (20 mg/kg i.p.) or vehicle immediately prior to being placed in an eight-chamber Oxymax system (Columbus Instruments) for seven hours. During their time in the metabolic cages all rats had free access to food and water. The next morning, rats were euthanized in the fed state precisely 1 hr following a final dose of BT2 (20 mg/kg i.p.) or vehicle.\nFor the PPM1K overexpression study, male 12 week-old ZFR were administered two doses of cyclosporine (15 mg/kg i.p., Novartis) prior to adenovirus administration. The first dose of cyclosporine was given 24 hours prior and the second dose was administered immediately prior to tail vein injection of Ad-CMV-PPM1K or Ad-CMV-GFP adenovirus (2×10^12 viral particles per kg). Both viruses use the CMV promoter to drive transgene expression. […]\nBCKDH activity assay: Tissue BCKDH activity was measured. […] The ^14CO2 contained in the trap was counted in a Beckman Coulter LS6500 liquid scintillation counter."}, "ATP citrate lyase (ACL)": {"system": "ATP citrate lyase (ACL)", "assay": "Immunoblot of phospho-ser454 and total ACL in liver of treated Zucker fatty rats", "conditions": "ZFR, BT2 vs vehicle", "description": "as §3, with “administration.” for “administration. Here ad-libitum fed rats were injected with BT2 (20 mg/kg i.p.) or vehicle immediately prior to being placed in an eight-chamber Oxymax system (Columbus Instruments) for seven hours. During their time in the metabolic cages all rats had free access to food and water.”\n(§5) Immunoblotting: Tissue lysates used for immunoblotting were prepared in Cell Lysis Buffer (Cell Signaling Technologies) containing protease inhibitor tablets (Roche), phosphatase inhibitor cocktails 2 and 3 (Sigma), and 10 mM PMSF. […] Immunoblots were developed using a Li-Cor Odyssey CLx and quantified using the Li-Cor software."}, "Zucker fatty rats [3]": {"system": "Zucker fatty rats", "assay": "Circulating BCAA and BCKA in treated Zucker fatty rats", "conditions": "ZFR, BT2 20 mg/kg i.p. daily for one week, vs vehicle", "description": "as §1, §4\nas §2, with “Plasma insulin concentrations were measured with a Millipore EMD Rat insulin ELISA kit.” left out"}, "Zucker fatty rats [4]": {"system": "Zucker fatty rats", "assay": "Liver triacylglyceride content in treated Zucker fatty rats", "conditions": "ZFR, BT2 20 mg/kg i.p. daily for one week, vs vehicle", "description": "as §1, §2"}, "BCKDH e1a": {"system": "BCKDH e1a", "assay": "Immunoblot of phospho-ser293 BCKDH e1a in tissues of treated Zucker fatty rats", "conditions": "ZFR, BT2 20 mg/kg i.p. daily for one week, vs vehicle", "description": "as §3, with “administration.” for “administration. Here ad-libitum fed rats were injected with BT2 (20 mg/kg i.p.) or vehicle immediately prior to being placed in an eight-chamber Oxymax system (Columbus Instruments) for seven hours. During their time in the metabolic cages all rats had free access to food and water.”\nas §5"}, "Zucker fatty rats [5]": {"system": "Zucker fatty rats", "assay": "Other plasma analytes (lactate, lipids, ketones) in treated Zucker fatty rats", "conditions": "ZFR, BT2 20 mg/kg i.p. daily for one week, vs vehicle", "description": "as §1, §2"}},
  "note": "Entries after “also recorded” stand apart in the source; their conditions may differ.",
  "data": [
    {"smiles": "O=C(O)c1sc2cc(Cl)ccc2c1Cl", "note": "[BT2, 3,6-dichlorobenzo[b]thiophene-2-carboxylic acid]", "values": [
      {"measurement": "glucose excursion during ipGTT", "setting": "Zucker fatty rats [1]", "value": "significantly smaller"},
      {"measurement": "insulin excursion during ipGTT", "setting": "Zucker fatty rats [1]", "value": "significantly smaller"},
      {"measurement": "even chain acyl-carnitines in liver", "setting": "Zucker fatty rats [2]", "value": "increases"},
      {"measurement": "even chain acyl-carnitines in skeletal muscle", "setting": "Zucker fatty rats [2]", "value": "but not in skeletal muscle"},
      {"measurement": "BCKDH enzyme activity in heart", "setting": "BCKDH", "value": "increased"},
      {"measurement": "BCKDH enzyme activity in liver", "setting": "BCKDH", "value": "increased"},
      {"measurement": "BCKDH enzyme activity in skeletal muscle", "setting": "BCKDH", "value": "small increment"},
      {"measurement": "ACL phosphorylation on ser454, immunoblot of liver lysates", "setting": "ATP citrate lyase (ACL)", "value": "markedly less"},
      {"measurement": "abundance of total ACL protein in liver", "setting": "ATP citrate lyase (ACL)", "value": "trend for lower abundance"},
      {"measurement": "circulating BCAA levels", "setting": "Zucker fatty rats [3]", "value": "lowered"},
      {"measurement": "circulating branched-chain α-ketoacids (BCKA)", "setting": "Zucker fatty rats [3]; 20 mg/kg", "value": "more dramatic lowering; also recorded: potently lowers"},
      {"measurement": "hepatic TG levels", "setting": "Zucker fatty rats [4]", "value": "significantly lower"},
      {"measurement": "BCKDH phosphorylation in skeletal muscle", "setting": "BCKDH e1a", "value": "not associated with a detectable change"},
      {"measurement": "BCKDH phosphorylation on serine 293 of the e1a subunit in liver and heart", "setting": "BCKDH e1a", "value": "lower levels"},
      {"measurement": "circulating TG, cholesterol, glycerol, non-esterified fatty acids (NEFA), or ketones", "setting": "Zucker fatty rats [5]", "value": "no effects"},
      {"measurement": "lactate in circulation", "setting": "Zucker fatty rats [5]", "value": "lower levels"}
    ]}
  ]
}
